Measurements from patent US12285393B2, “Roles of modulators of intersectin-Cdc42 signaling in Alzheimer's disease” (priority 2017, dated 2025).

Experiments:
[1] = Solubility profile by optical density; assay type: physicochemical; settings: for solubility: in DM19
Excerpt: ZCL278, ZCL279, and ZCL367 were all tested for solubility in the 5 FDA approved solvents to be used in humans. […] Results are shown below in Tables 2-4. Ratio refers to the optical density of the solution comprising the modulator compound/the optical density of the carder/solvent alone.

WT and 3×Tg-AD mice = test: Eyeblink classical conditioning test; assay type: in vivo
Excerpt: Six-month-old C57/BL6 (WT) and 3×Tg-AD mice with an average weight of 24 g from Jackson Laboratory (Bar Harbor, Maine, United States of America) were used. The 3×Tg-AD mice in hybrid 129/C57BL/6 background contain two mutant human transgenes, hAPP harboring Swedish mutation (hAPPswe) and mutant htau (htau301L) under a neuron-specific promoter, and also contain the knock-in mutant presenilin 1 (PS1M146V). See Oddo et al. (2003) Neuron 39:409-421). 3×Tg-AD mice were received from Jackson Laboratory as Psen1 B6:129-Psen1<tmMpm>Tg(APPSwetauP301L)1Lfa/J and the wild type control as SF2: (B6129SF1/J+p+Tyr-c+Mgf-SIJ)F2. All mice were subjected to two weeks of training for familiarizing behavioral test procedures. Subsequently, mice were assayed to establish a baseline of behavior tests before ZCL compound treatment. Then, mice were separated into three treatment groups (Control, ZCL278 and ZCL279). Both ZCL278 and ZCL279 were dissolved in sesame oil with 5% DMSO and each treatment was administrated via an intraperitoneal injection. All treatment groups of mice were treated once a week. Control group was treated with 130 μl 5% DMSO in sesame oil. ZCL278 and ZCL279 groups were treated with 20 μg/g ZCL 278 or ZCL 279 in sesame oil (5% DMSO). On the day following drug treatment, all mice were subjected to a burrowing test, nesting test and contact avoidance evaluations. On the 4th week of experiment, selected female mice from each group were submitted to Morris water maze test and eye blink test.
Eye blinking test: Eyeblink classical conditioning (ECC) behavior testing was performed based on a method described previously. See Rufer et al., PLoS One, 2012, 7(10):e47499; and Thomas & Tran, Hippocampus, 2012, 22:619-630. Briefly, the day after ZCL compound treatment, two stainless steel recording electrodes (3T, Medwire, Mount Vernon, New York, United States of America) were implanted in the left orbicularis oculi muscle in all mice, and a bipolar stimulating electrode adjacent to the left eye. […]

Rac1 [2] = target: T1, Rac1 (Homo sapiens, UniProt P63000); test: Rho-GEF IC50 assay (GEF/DH domain-mediated mant-GTP binding); assay type: biochemical
T1 construct: purchased Cytoskeleton Inc
Procedure: (§1) Rho-GEF IC50 Assay: Rho-GEF assay (Cytoskeleton Inc., Denver, Colorado, United States of America) was conducted per manufacturer's instructions (λex=360 nm, λem=460 nm). Briefly, a solution (50 μL) of purified Rho GTPase (1 μM) and mant-GTP (1.5 μM) with or without compound (0.001-500 μM) was prepared and the absorbance monitored for 10-30 min to obtain the background/baseline. The addition of purified GEF/DH domain (0.08-0.2 μM) was carried out simultaneously and the absorbance was recorded for 30-45 min. The linear slope following the addition of the GEF was calculated and expressed as percentage of the control and plotted on an IC50 curve.

RhoA = target: T2, RhoA (Homo sapiens, UniProt P61586); test: as above; assay type: biochemical
T2 construct: purchased Cytoskeleton Inc
T2 sequence (P61586 whole entry): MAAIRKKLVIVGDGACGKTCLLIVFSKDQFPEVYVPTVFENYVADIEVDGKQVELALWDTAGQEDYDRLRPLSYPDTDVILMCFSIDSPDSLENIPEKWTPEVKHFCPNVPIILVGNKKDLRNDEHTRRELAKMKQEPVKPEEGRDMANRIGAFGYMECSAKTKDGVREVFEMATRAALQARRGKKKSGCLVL
Procedure: as §1

GTP-bound (active) Cdc42 = target: T3, GTP-bound (active) Cdc42 (Mus musculus, UniProt P60766); test: G-LISA in serum-starved Swiss 3T3 cells; assay type: cell-based; settings: 50 μM
T3 construct: endogenous in cells; host or cells: Swiss 3T3 cells
T3 sequence (P60766 whole entry): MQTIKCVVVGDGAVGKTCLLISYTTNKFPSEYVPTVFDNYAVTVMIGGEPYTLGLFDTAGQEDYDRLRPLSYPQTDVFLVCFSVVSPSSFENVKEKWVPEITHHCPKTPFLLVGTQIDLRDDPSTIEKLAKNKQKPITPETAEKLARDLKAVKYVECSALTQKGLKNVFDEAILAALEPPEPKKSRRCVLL
Procedure: G-LISA: G-LISA is an ELISA-based assay that allows a quantitative determination of the levels of GTP-bound (active) Cdc42 in cellular lysates. Swiss 3T3 cells (˜50% confluent) were starved for 24h then treated with ZCL278 (50 μM) for 0, 5, 10, 15, 30, or 60 m. Cells were lysed and G-LISA conducted according to Cytoskeleton G-LISA protocol. Briefly, ˜300 μL of lysis buffer was added, cells were scraped, transferred to a centrifuge tube, and centrifuged at 0° C. for 1 min at 13,200 rpm. Samples were flash frozen in liquid nitrogen. Approximately […] protein was loaded into duplicate wells for G-LISA. Absorbance was measured at 490 nm.

Rac1 [3] = target: T4, Rac1 (Mus musculus, UniProt P63001); test: G-LISA in serum-starved Swiss 3T3 cells; assay type: cell-based; settings: 50 μM
T4 construct: endogenous in cells; host or cells: Swiss 3T3 cells

[4] = 1,2-Propanediol, 40%, 37° C., 1 hour
[5] = Dimethyl Sulfoxide (DMSO), 37° C., 1 hour
[6] = Pluronic F-68, 10%, 37° C., 1 hour
[7] = Polyethylene Glycol300 (PEG-300), 30%, 37° C., 1 hour
[8] = Dimethyl Sulfoxide (DMSO), RT-3 h
[9] = Polyethylene Glycol300 (PEG-300), 30%, RT-3 h

O=S(=O)(Nc1ccccc1O)c1ccc2oc3ccc(S(=O)(=O)Nc4ccccc4O)cc3c2c1 [ZCL279, N^2,N^8-bis(2-hydroxyphenyl)dibenzo[b,d]furan-2,8-disulfonamide]
Ratio (optical density solution/solvent alone) [1, 4]: 2.359
optical density of solution [1, 4]: 0.092
Ratio (optical density solution/solvent alone) [1, 5]: 1.071
optical density of solution [1, 5]: 0.045
Ratio (optical density solution/solvent alone) [1, 6]: 2.667
optical density of solution [1, 6]: 0.104
Ratio (optical density solution/solvent alone) [1, 7]: 3.762
optical density of solution [1, 7]: 0.158
Ratio (optical density solution/solvent alone) ([1]; Sesame Oil, 37° C., 1 hour): 1.872
optical density of solution ([1]; Sesame Oil, 37° C., 1 hour): 0.088
Ratio (optical density solution/solvent alone) ([1]; Sterile Water, 37° C., 1 hour): 6.158
optical density of solution ([1]; Sterile Water, 37° C., 1 hour): 0.234
Ratio (optical density solution/solvent alone) ([1]; Tween-80, 0.4%, 37° C., 1 hour): 3.105
optical density of solution ([1]; Tween-80, 0.4%, 37° C., 1 hour): 0.118
Ratio (optical density solution/solvent alone) ([1]; dPBS, 37° C., 1 hour): 3.846
optical density of solution ([1]; dPBS, 37° C., 1 hour): 0.15
solubility [1]: completely soluble
CR percentage (WT and 3×Tg-AD mice; AD mice, after 6 training sessions (control AD mice about 20%)): about 35%
CR percentage (WT and 3×Tg-AD mice; WT mice): did not significantly change

Cc1cc(C)nc(NS(=O)(=O)c2ccc(NC(=S)NC(=O)COc3ccc(Br)cc3Cl)cc2)n1 [ZCL278, 4-(3-(2-(4-bromo-2-chloro-phenoxy)-acetyl)-thioureido)-N-(4,6-dimethylpyrimidin-2-yl)-benzenesulfonamide]
IC50 (Rac1 [2]): ≥ 500 µM
IC50 (RhoA): ≥ 500 µM
effect on GTP-bound (active) Cdc42 (GTP-bound (active) Cdc42; 0-60 m, serum-starved Swiss 3T3 cells): activates Cdc42
time of Cdc42 activity peak (GTP-bound (active) Cdc42; another peak): about 60 min
time of Cdc42 activity peak (GTP-bound (active) Cdc42; first peak): Approximately 15 min
effect on Rac1 (Rac1 [3]): inhibits Rac1
Ratio (optical density solution/solvent alone) ([1]; 1,2-Propanediol, 40%, RT-3 h): 3.154
optical density of solution ([1]; 1,2-Propanediol, 40%, RT-3 h): 0.123
Ratio (optical density solution/solvent alone) [1, 8]: 1.119
optical density of solution [1, 8]: 0.047
Ratio (optical density solution/solvent alone) ([1]; Pluronic F-68, RT-3 h): 2.675
optical density of solution ([1]; Pluronic F-68, RT-3 h): 0.107
Ratio (optical density solution/solvent alone) [1, 9]: 2.275
optical density of solution [1, 9]: 0.091
Ratio (optical density solution/solvent alone) ([1]; Sesame Oil, RT-3 h): 1.395
optical density of solution ([1]; Sesame Oil, RT-3 h): 0.06
Ratio (optical density solution/solvent alone) ([1]; Sterile Water, RT-3 h): 2.211
optical density of solution ([1]; Sterile Water, RT-3 h): 0.084
Ratio (optical density solution/solvent alone) ([1]; Tween 80, 0.4%, RT-3 h): 1.725
optical density of solution ([1]; Tween 80, 0.4%, RT-3 h): 0.069
Ratio (optical density solution/solvent alone) ([1]; dPBS, RT-3 h): 1.795
optical density of solution ([1]; dPBS, RT-3 h): 0.07
solubility [1]: completely soluble
CR percentage (WT and 3×Tg-AD mice; WT mice): did not significantly change
